Assay results published in patent US4540700A, “Treatment of diabetic complications with certain spiro-imidazolidine-diones” (Alcon Laboratories, Inc., priority 1984, dated 1985).

Tested on: cataract formation in galactocemic rats
Test: in vivo dose response by intubation (per oral) in galactocemic rats, cataract (vacuole) formation
Set-up: species or system Charles River CD (Sprague-Dawley derived) male rats
Conditions: for Relative Potency (antilog) / log relative potency for eyes with vacuoles or more advanced cataracts: observation day 12, 95% confidence limits
Experimental: B. In vivo dose response studies were conducted to test the in vivo activity of the following compounds by intubation (per oral) in galactocemic rats on a 30% galactose diet previously described:
Stock suspensions of the test compounds and all dilutions of the compound were formulated with 0.03% by weight Tween 80.
Healthy, Charles River CD (outbred albino, Sprague-Dawley derived) male rats, aged 20-30 days, without observable ocular defects and ranging in weight from 35-45 grams, were acclimated to experimental conditions (in quarantine) for two days prior to beginning the study.
Rats were individually assigned to one of twenty-three groups according to a random number schedule. Two rats, belonging to the same drug-diet treatment group, were housed per cage. Treatment and control groups consisted of six (6) rats each with no replacement in the event of death, and were designated as follows:
Lenses of all eyes were examined with a hand-held ophthalmoscope in the early stages of cataract development and a penlight for the stages, snowflake-like, snowflake, and nuclear cataract. Lens grading occurred every day for the first ten study days, and then every other day until study Day 14.
The relative potency determination was made at 7 drug levels over half log dose intervals. The response (percent cataracts formed and/or the time to cataract formation) was plotted against mg/kg and/or moles/kg.
The study was directed to the suppression and/or elimination of the initial stages of cataract development characterized by vacuoles or snowflake-likeopacities only. It was assumed therefore that suppression and/or elimination of vacuoles or lens opacification by the test drugs affects the transport, absorption and/or metabolism of galactose in such a manner as to prevent subsequent osmotic disturbances normally leading to tissue degeneration and advanced cataract. Advanced cataract defined as stages 2-4 of the Sipple classification was assumed to be of secondary importance to the etiology of cataract inhibition.
In the event where cataract stage other than vacuole formed, such as snowflake-like opacities, this cataract was counted similarly as vacuole in percent cataract formation.
This study yielded this expected effect in the control groups.
All animals were fed Purina Laboratory Chow and water, ad libitum, for the two day acclimation period. All drugs were dosed orally by intubation using an animal feeding needle (Popper and Sons), 18 or 20 gauge, attached to a 1 or 3 ml syringe. Once the dosing time schedule was established, the schedule was followed throughout the study to compensate for any diurnal variation.
The animals were kept on a twelve hour day/night cycle. The temperature and humidity were determined each day at the scheduled dosing time of 1:00 p.m.
The animals were weighed every other day and adjustments to dosage amounts to compensate for weight gain were made each day prior to the dose time. All food was routinely withheld from all animal groups for four hours (9:00 a.m.) prior to the drug dose and restored two hours (3:00 p.m.) post-dose. Otherwise sufficient amounts of chow or diet mixture were maintained in the food hopper to allow the animals to eat ad libitum. There were two days of drug dosage with the animals remaining on Purina Laboratory Chow (Days 1 and 2). The 30% galactose diet mixture was introduced to the animals two hours post-dose on Day 3 which constituted Day 1 of the study.
All eyes were examined with a hand-held ophthalmoscope and/or penlight at the times designated in the Experimental Design section.
It has been found in previous studies that dilation of the eye with a mydriactic (i.e. Mydriacyl) is not necessary for accurate grading, due to the semi-transparent nature of the rat iris. In the early stages (i.e., grades -, ±, and +) the lens was observed by reflecting the ophthalmoscope beam off the retina back through the lens and iris. Using this technique, vacuoles appear as dark, almost opaque patches. […]

Structure (SMILES): O=C1NC(=O)C2(N1)c1cc(F)ccc1-c1ccc(F)cc12 [M, Spiro-[2,7-difluorofluoren-9,4'-imidazolidine]-2',5'-dione]
- Percent of Rat Eyes With at Least Vacuoles Formed (4.0 mg/kg p.o., Day 9): 0.0%
- Percent of Rat Eyes With at Least Vacuoles Formed (4.0 mg/kg p.o., Day 9, listed as 2,7-difluoro): 0%
- Percent of Rat Eyes With at Least Vacuoles Formed (4.0 mg/kg p.o., Day 10): 0.0%
- Percent of Rat Eyes With at Least Vacuoles Formed (4.0 mg/kg p.o., Day 10, listed as 2,7-difluoro): 0%
- Percent of Rat Eyes With at Least Vacuoles Formed (4.0 mg/kg p.o., Day 12): 0.0%
- Percent of Rat Eyes With at Least Vacuoles Formed (4.0 mg/kg p.o., Day 12, listed as 2,7-difluoro): 0%
- Percent of Rat Eyes With at Least Vacuoles Formed (4.0 mg/kg p.o., Day 14): 0.0%
- Percent of Rat Eyes With at Least Vacuoles Formed (4.0 mg/kg p.o., Day 14, listed as 2,7-difluoro): 0%
- Percent of Rat Eyes With at Least Vacuoles Formed (12.6 mg/kg p.o., Day 0): 0%
- Percent of Rat Eyes With at Least Vacuoles Formed (12.6 mg/kg p.o., Day 1): 0%
- Percent of Rat Eyes With at Least Vacuoles Formed (12.6 mg/kg p.o., Day 2): 0%
- Percent of Rat Eyes With at Least Vacuoles Formed (12.6 mg/kg p.o., Day 3): 0%
- Percent of Rat Eyes With at Least Vacuoles Formed (12.6 mg/kg p.o., Day 4): 0%
- Percent of Rat Eyes With at Least Vacuoles Formed (12.6 mg/kg p.o., Day 5): 0%
- Percent of Rat Eyes With at Least Vacuoles Formed (12.6 mg/kg p.o., Day 6): 0.0%
- Percent of Rat Eyes With at Least Vacuoles Formed (12.6 mg/kg p.o., Day 6, listed as 2,7-difluoro): 0%
- Percent of Rat Eyes With at Least Vacuoles Formed (12.6 mg/kg p.o., Day 7): 0.0%
- Percent of Rat Eyes With at Least Vacuoles Formed (12.6 mg/kg p.o., Day 7, listed as 2,7-difluoro): 0%
- Percent of Rat Eyes With at Least Vacuoles Formed (12.6 mg/kg p.o., Day 8): 0.0%
- Percent of Rat Eyes With at Least Vacuoles Formed (12.6 mg/kg p.o., Day 8, listed as 2,7-difluoro): 0%
- Percent of Rat Eyes With at Least Vacuoles Formed (12.6 mg/kg p.o., Day 9): 0.0%
- Percent of Rat Eyes With at Least Vacuoles Formed (12.6 mg/kg p.o., Day 9, listed as 2,7-difluoro): 0%
- Percent of Rat Eyes With at Least Vacuoles Formed (12.6 mg/kg p.o., Day 10): 0.0%
- Percent of Rat Eyes With at Least Vacuoles Formed (12.6 mg/kg p.o., Day 10, listed as 2,7-difluoro): 0%
- Percent of Rat Eyes With at Least Vacuoles Formed (12.6 mg/kg p.o., Day 12): 0.0%
- Percent of Rat Eyes With at Least Vacuoles Formed (12.6 mg/kg p.o., Day 12, listed as 2,7-difluoro): 0%
- Percent of Rat Eyes With at Least Vacuoles Formed (12.6 mg/kg p.o., Day 14): 0.0%
- Percent of Rat Eyes With at Least Vacuoles Formed (12.6 mg/kg p.o., Day 14, listed as 2,7-difluoro): 0%
- Percent of Rat Eyes With at Least Vacuoles Formed (40 mg/kg p.o., Day 0): 0%
- Percent of Rat Eyes With at Least Vacuoles Formed (40 mg/kg p.o., Day 1): 0%
- Percent of Rat Eyes With at Least Vacuoles Formed (40 mg/kg p.o., Day 2): 0%
- Percent of Rat Eyes With at Least Vacuoles Formed (40 mg/kg p.o., Day 3): 0%
- Percent of Rat Eyes With at Least Vacuoles Formed (40 mg/kg p.o., Day 4): 0%
- Percent of Rat Eyes With at Least Vacuoles Formed (40 mg/kg p.o., Day 5): 0%
- Percent of Rat Eyes With at Least Vacuoles Formed (40 mg/kg p.o., Day 6): 0.0%
- Percent of Rat Eyes With at Least Vacuoles Formed (40 mg/kg p.o., Day 6, listed as 2,7-difluoro): 0%
- Percent of Rat Eyes With at Least Vacuoles Formed (40 mg/kg p.o., Day 7): 0.0%
- Percent of Rat Eyes With at Least Vacuoles Formed (40 mg/kg p.o., Day 7, listed as 2,7-difluoro): 0%
- Percent of Rat Eyes With at Least Vacuoles Formed (40 mg/kg p.o., Day 8): 0.0%
- Percent of Rat Eyes With at Least Vacuoles Formed (40 mg/kg p.o., Day 8, listed as 2,7-difluoro): 0%
- Percent of Rat Eyes With at Least Vacuoles Formed (40 mg/kg p.o., Day 9): 0.0%
- Percent of Rat Eyes With at Least Vacuoles Formed (40 mg/kg p.o., Day 9, listed as 2,7-difluoro): 0%
- Percent of Rat Eyes With at Least Vacuoles Formed (40 mg/kg p.o., Day 10): 0.0%
- Percent of Rat Eyes With at Least Vacuoles Formed (40 mg/kg p.o., Day 10, listed as 2,7-difluoro): 0%
- Percent of Rat Eyes With at Least Vacuoles Formed (40 mg/kg p.o., Day 12): 0.0%
- Percent of Rat Eyes With at Least Vacuoles Formed (40 mg/kg p.o., Day 12, listed as 2,7-difluoro): 0%
- Percent of Rat Eyes With at Least Vacuoles Formed (40 mg/kg p.o., Day 14): 0.0%
- Percent of Rat Eyes With at Least Vacuoles Formed (40 mg/kg p.o., Day 14, listed as 2,7-difluoro): 0%
- activity in vivo relative to the Sarges compound (rat studies): unexpectedly and significantly more active
- Relative Potency (antilog) (relative to 2-fluoro (L)): 2.80
- log relative potency for eyes with vacuoles or more advanced cataracts (relative to 2-fluoro (L)): 0.4473
- Relative Potency (antilog) (relative to Sarges Racemic): 12.92
- log relative potency for eyes with vacuoles or more advanced cataracts (relative to Sarges Racemic): 1.1114
